Patent publication US20230065953A1, “NOVEL HETEROARYL-TRIAZOLE COMPOUNDS AS PESTICIDES” (Bayer Aktiengesellschaft, priority 2019, published 2023)

What was measured:
Type in all cases: in vivo
[1] = tested on: larvae of the banded cucumber beetle (Diabrotica balteata); assay: Diabrotica balteata spray test; conditions: 168 h, 100 g/ha (=32 μg/well), wheat seeds, after 7 days, read-out: efficacy (seedling growth)
In short: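 Efficacy in % was read 7 days after infesting with 10-20 larvae per unit. Before infestation, 1-day-germinated wheat seedlings (5 per well) were sprayed with the active ingredient, formulated in acetone and dimethylformamide plus emulsifier and diluted with water containing emulsifier.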

[2] = tested on: adult brown dog ticks (Rhipicephalus sanguineus); assay: Rhipicephalus sanguineus in-vitro contact test with adult brown dog ticks; conditions: 5 μg/cm^2 (=500 g/ha), after 48 hours, read-out: efficacy (ticks dead or moribund)
In short: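 Contact exposure: dried compound film inside glass tubes, dose 5 μg/cm^2 at 900 ppm, 5-10 adults per tube at room temperature. Scored at 48 h via a heat-escape test on a 45-50° C plate for up to 5 min.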

[3] = tested on: adult mosquitoes Aedes aegypti strain MONHEIM; assay: Aedes aegypti test (AEDSAE surface treatment & contact assay); conditions: 24 hours after contact, read-out: efficacy (mortality); for mortality at 20 mg/m2: surface concentration 20 mg/m^2, 30 min exposure
In short: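 Test compound in acetone (2 mg/ml) with 2000 ppm rapeseed oil methyl ester was dried onto a glazed tile. Adult Aedes aegypti MONHEIM were exposed to the treated surface for 30 minutes. Percent mortality was scored 24 hours after contact.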

[4] = tested on: Rhipicephalus microplus larvae (strain Parkhurst, resistant against synthetic pyrethroids); assay: Rhipicephalus (Boophilus) microplus in-vitro contact test, larval cattle tick; conditions: 5 μg/cm^2 (=500 g/ha), after 48 hours, read-out: efficacy (larvae dead or moribund)
In short: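 Compound in acetone coated onto the inner walls of glass tubes (900 ppm giving 5 μg/cm^2), solvent evaporated, then 20–50 larvae added and held at 27 °C, 85% RH. After 48 h, efficacy scored from negative geotactic behaviour as % dead or moribund larvae.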

[5] = tested on: fall armyworm larvae (Spodoptera frugiperda); assay: Spodoptera frugiperda spray test (maize leaf sections); conditions: 168 h
In short: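 Percent kill of Spodoptera frugiperda caterpillars read at day 7. Larvae placed on dried Zea mays leaf pieces previously sprayed with test preparation, made from acetone plus DMF and diluted with emulsifier-containing water (1000 ppm).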

[6] = tested on: adult engorged female ticks (Rhipicephalus microplus); assay: Rhipicephalus (Boophilus) microplus injection test; conditions: 168 h, 4 μg/animal, egg deposition after 7 days, read-out: efficacy (infertile eggs)
In short: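 Five adult engorged female ticks each injected into the abdomen with 1 μL of compound in DMSO, then kept in a climate chamber. Fertile egg deposition assessed after 7 days, with unclear eggs held until hatching around 42 days; efficacy 100% means all eggs infertile, 0% all fertile.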

[7] = tested on: adult unfed cat fleas (Ctenocephalides felis); assay: Ctenocephalides felis oral test; conditions: 48 h
In short: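 About 20 adult unfed fleas fed through parafilm on cattle blood containing compound (DMSO stock diluted in blood), blood held at 37 °C and fleas at room temperature. Mortality (%) scored after 2 days.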

[8] = tested on: adult flies Musca domestica strain WHO-N; assay: Musca domestica test (MUSCDO surface treatment & contact assay); conditions: 24 hours after contact, read-out: efficacy (mortality); for mortality at 4 mg/m2: surface concentration 4 mg/m^2, 30 min exposure; for mortality at 20 mg/m2: surface concentration 20 mg/m^2, 30 min exposure
In short: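 Percent kill read 24 h post-contact, after adult flies (strain WHO-N) spent 30 min on a glazed tile treated with test solution (acetone, 2 mg/ml, plus 2000 ppm rapeseed oil methyl ester) and dried.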

[9] = tested on: green peach aphid (Myzus persicae); assay: Myzus persicae oral test; conditions: 120 h
In short: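 Compound was dissolved in acetone, diluted with water and mixed into IPL41 insect medium with sugar under a parafilm seal. A mixed aphid population fed through the parafilm, and mortality (%) was scored after 5 days.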

[10] = tested on: cattle ticks (Rhipicephalus microplus) strain Parkhurst, SP-resistant; assay: Rhipicephalus (Boophilus) microplus dip test; conditions: 100 ppm, egg deposition after 7 days
Protocol: Rhipicephalus (Boophilus) Microplus—Dip Test
Test animal: cattle ticks (Rhipicephalus microplus) strain Parkhurst, SP-resistant
Solvent: dimethyl sulfoxide
To produce a suitable preparation of active compound, 10 mg of active compound are dissolved in 0.5 mL solvent, and the concentrate is diluted with water to the desired concentration.
This compound solution is pipetted into tubes. 8-10 engorged, adult, female cattle ticks (Rhipicephalus microplus) are placed in perforated tubes. These tubes are immersed in the aqueous compound solution until the ticks are completely moistened. After the liquid has drained off, the ticks are transferred to a filter paper in a plastic tray and stored in a climate chamber.
After 7 days egg deposition of fertile eggs is monitored. Eggs where fertility is not visible are stored in a climate chamber till hatching after about 42 days. An efficacy of 100% means all eggs are infertile; 0% means all eggs are fertile.

[11] = tested on: adult cat fleas (Ctenocephalides felis); assay: Ctenocephalides felis in-vitro contact test, adult cat flea; conditions: 5 μg/cm^2 (=500 g/ha), after 48 hours
In short: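 After 48 h of room-temperature exposure in tubes whose walls carried dried compound residue (5 μg/cm^2, from 900 ppm acetone solution), adult cat fleas (5-10 per tube) were heat-challenged at 45-50° C up to 5 min. Fleas unable to climb away were counted dead or moribund, expressed as % efficacy.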

[12] = tested on: adult mosquitoes Anopheles funestus strain FUMOZ-R; assay: Anopheles funestus test (ANPHFU surface treatment & contact assay); conditions: 24 hours after contact, read-out: efficacy (mortality); for mortality at 20 mg/m2: surface concentration 20 mg/m^2, 30 min exposure
Protocol: Anopheles funestus Test (ANPHFU Surface Treatment & Contact Assay) • Solvent: Aceton+2000 ppm rapeseed oil methyl ester (RME)
In order to produce a sufficient, active ingredient containing solution it is necessary to solve the test compound in the solvent-mix (acetone at 2 mg/ml/RME 2000 ppm). This solution is pipetted onto a glazed tile and after evaporation of the acetone, adult mosquitoes of the species Anopheles funestus strain FUMOZ-R (Hunt et al., Med. Vet. Entomol. 2005 September; 19(3): 271-275) are placed onto the dried surface. The exposure time is 30 minutes.
Mortality in percent (%) is determined 24 hours after contact of the insects to the treated surface. 100% mortality means that all tested insects are dead, whereas 0% means that no insect died.

[13] = tested on: green peach aphid (Myzus persicae); assay: Myzus persicae spray test; conditions: foliar, 120 h, Chinese cabbage leaf disks, after 5 days
In short: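 Percent mortality read 5 days after spraying, where 100% is total kill and 0% none. The spray contained compound in acetone plus dimethylformamide, diluted with 1000 ppm emulsifier water. It was applied to Brassica pekinensis leaf disks carrying mixed-instar green peach aphids.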

[14] = tested on: larvae of the southern green stink bug (Nezara viridula); assay: Nezara viridula spray test; conditions: in Hordeum vulgare, 96 h
In short: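 Mortality (%) of stink bug larvae on treated barley (Hordeum vulgare) was scored 4 days after infestation. Test solutions came from an acetone/DMF concentrate diluted with water containing 1000 ppm emulsifier and were sprayed onto plants before larvae were added.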

[15] = tested on: brown planthopper (Nilaparvata lugens); assay: Nilaparvata lugens spray test; conditions: 96 h, rice plants, after 4 days
Protocol: Nilaparvata lugens—Spray Test • Solvent: 78.0 parts by weight of acetone • 1.5 parts by weight of dimethylformamide • Emulsifier: alkylarylpolyglycol ether
To produce a suitable preparation of active compound, 1 part by weight of active compound is mixed with the stated amount of solvents and is diluted with water, containing an emulsifier concentration of 1000 ppm, to the desired concentration. Further test concentrations are prepared by dilution with emulsifier containing water.
Rice plants (Oryza sativa) are sprayed with a preparation of the active ingredient of the desired concentration and the plants are infested with the brown planthopper (Nilaparvata lugens).
After 4 days mortality in % is determined. 100% means all planthoppers have been killed and 0% means none of the planthoppers have been killed.

[16] = tested on: caterpillars of the fall army worm (Spodoptera frugiperda); assay: Spodoptera frugiperda spray test (cotton leaves); conditions: 168 h, after 7 days
Protocol: Spodoptera frugiperda—spray test • Solvent: 14 parts by weight of dimethylformamide • Emulsifier: alkylaryl polyglycol ether
To produce a suitable preparation of active compound, 1 part by weight of active compound is mixed with the stated amount of solvent and is diluted with water, containing an emulsifier concentration of 1000 ppm, to the desired concentration. Further test concentrations are prepared by dilution with emulsifier containing water. Ammonium salt and/or penetration enhancer in a dosage of 1000 ppm are added to the desired concentration if necessary.
Cotton leaves (Gossypium hirsutum) are treated by being sprayed with the preparation of the active compound of the desired concentration and are infested with caterpillars of the fall army worm (Spodoptera frugiperda).
After 7 days mortality in % is determined. 100% means all the caterpillars have been killed and 0% means none of the caterpillars have been killed.

[17] = surface concentration 4 mg/m^2, 30 min exposure

| SMILES | pest or weed control at 32 µg/disc, 100 g/ha [1] [%] | pest or weed control at 5 µg/cm2, 500 g/ha [2] [%] | mortality at 20 mg/m2 [3] [%] | pest or weed control at 5 µg/cm2 [4] [%] | mortality at 100 g/ha [5] [%] | pest or weed control at 0.004 mg [6] [%] | mortality at 100 ppm [7] [%] | mortality at 4 mg/m2 [8] [%] | mortality at 20 mg/m2 [8] [%] | mortality at 4 ppm [9] [%] | efficacy (fleas dead or moribund) [11] [%] | mortality at 20 ppm [16] [%] | other results |
| --- | --- | --- | --- | --- | --- | --- | --- | --- | --- | --- | --- | --- | --- |
| Cc1nc([C@H](C)NC(=O)c2cc(Br)cc(C(F)(F)F)c2)n(-c2ncc(C#N)s2)n1 [I-14] | 100 | 100 | 80 to 100 | 100 | 100 | 100 | 100 | 90 to 100 | 80 to 100 | 100 |  |  | efficacy (infertile eggs) [10]: 100% |
| CC(NC(=O)c1cc(OC(F)(F)F)cc(C(F)F)c1)c1ncnn1-c1ncc(C#N)s1 (centres unmarked) [I-26] | 100 |  | 80 to 100 | 100 | 100 | 100 | 100 | 90 to 100 | 80 to 100 | 100 | 100 |  | mortality at 20 mg/m2 [12]: 80 to 100% |
| CC(NC(=O)c1cc(OC(F)F)cc(OC(F)F)c1)c1ncnn1-c1ncc(C#N)s1 (centres unmarked) [I-31] | 100 | 100 | 80 to 100 | 100 | 100 | 100 | 100 | 90 to 100 | 80 to 100 | 100 |  |  | mortality at 100 g/ha [13]: 90%; mortality at 4 mg/m2 [12, 17]: 80 to 100%; mortality at 4 mg/m2 [3, 17]: 80 to 100% |
| C[C@H](NC(=O)c1cc(C(F)(F)F)cc(C(F)(F)F)c1)c1ncnn1-c1ncc(C(=O)N(C)C)s1 [I-64] | 100 | 100 | 80 to 100 | 100 | 100 |  |  | 90 to 100 | 80 to 100 |  | 100 |  | mortality at 100 g/ha [13]: 100%; mortality at 20 mg/m2 [12]: 80 to 100%; mortality at 500 g/ha [14]: 100%; mortality at 100 g/ha ([15]; 100 g/ha): 90%; mortality at 500 g/ha ([15]; 500 g/ha): 90% |
| C[C@H](NC(=O)c1cc(OC(F)(F)F)cc(S(C)(=O)=O)c1)c1ncnn1-c1ncc(C#N)s1 [I-93] |  |  |  |  |  |  |  |  |  |  |  | 100 |  |
| C[C@H](NC(=O)c1cc(OC(F)F)cc(OC(F)F)c1)c1ncnn1-c1ncc(C#N)s1 [I-94] |  | 100 |  | 100 |  |  |  |  |  |  | 100 | 100 |  |
| C[C@H](NC(=O)c1cc(Cl)cc(OC(F)(F)F)c1)c1ncnn1-c1ncc(C#N)s1 [I-96] |  |  |  |  |  |  |  |  |  |  |  | 100 |  |
| C[C@H](NC(=O)c1cc(C(F)F)cc(C(F)F)c1)c1ncnn1-c1ncc(C#N)s1 [I-97] |  | 100 |  | 100 |  |  |  |  |  |  | 100 | 100 |  |
| C[C@H](NC(=O)c1cc(OC(F)(F)F)cc(C(F)F)c1)c1ncnn1-c1ncc(C#N)s1 [I-98] |  | 100 |  | 100 |  |  |  |  |  |  | 100 | 100 |  |
